The results in this text go back to PubChem BioAssay (NCI).

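Compound exposure: 48 hours, 5 concentrations, 96-well plates. GI50 = concentration required for 50% inhibition of growth. TGI is the concentration that stops growth completely.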 Where only a bound is given, the exact number is not on record here.

Test systems include IGROV1 ovarian; CAKI-1 renal; UACC-257 melanoma; U251 CNS; DU-145 prostate; NCI-H226 lung; SK-MEL-5 melanoma; SF-268 CNS; NCI-H460 lung; OVCAR-8 ovarian.
Assay in all cases: growth of human tumour cells (NCI), 48 h

Take `COc1ccc(/C=C2\COc3ccc(O)c(O)c3C2=O)cc1OC`: the GI50 was 0.84 µM with IGROV1 ovarian; 1.22 µM in the assay on CAKI-1 renal; 1.75 µM with UACC-257 melanoma; 0.991 µM with U251 CNS; 2.22 µM with DU-145 prostate; 3.91 µM in the assay on NCI-H226 lung. Besides, the GI50 is 1.79 µM in the assay with SK-MEL-5 melanoma, 1.7 µM in the assay on SF-268 CNS, 1.83 µM in the assay on NCI-H460 lung and 1.68 µM in the assay on OVCAR-8 ovarian. Moreover, the TGI was determined as 3.53 µM in the assay on IGROV1 ovarian; 2.98 µM in the assay with CAKI-1 renal; 4.93 µM in the assay with UACC-257 melanoma; 7.2 µM with U251 CNS; 11.4 µM in the assay with DU-145 prostate; 48.1 µM with NCI-H226 lung. The TGI in the assay on SK-MEL-5 melanoma came to 3.4 µM; in the assay with SF-268 CNS, 5.64 µM; with NCI-H460 lung it was 5.02 µM; with OVCAR-8 ovarian, 15.7 µM.
Take `CC(C)c1[nH]nc2c(NCc3ccc(-c4ccccn4)cc3)nc(SCCN(C)C)nc12`: the GI50 was 0.0579 µM in the assay on IGROV1 ovarian; 0.37 µM in the assay with CAKI-1 renal; 0.017 µM with UACC-257 melanoma; 0.0474 µM in the assay on U251 CNS; 0.138 µM in the assay on DU-145 prostate; 0.24 µM in the assay on NCI-H226 lung. Moreover, the GI50 in the assay with SK-MEL-5 melanoma is 0.153 µM; in the assay with SF-268 CNS it was under 0.018 µM; in the assay with NCI-H460 lung it was 0.112 µM; with OVCAR-8 ovarian it was 0.0416 µM. In addition, the TGI with IGROV1 ovarian came to 13.7 µM; in the assay on CAKI-1 renal, 19.4 µM; in the assay with UACC-257 melanoma it was 0.0826 µM; in the assay on U251 CNS, 10.7 µM; in the assay on DU-145 prostate it was 12.4 µM; in the assay on NCI-H226 lung, 0.706 µM. Also, the TGI in the assay on SK-MEL-5 melanoma was found to be 0.552 µM; with SF-268 CNS, 3.68 µM; with NCI-H460 lung, 11.7 µM; in the assay with OVCAR-8 ovarian, 15.5 µM.
For `O=C(NCCCl)Nc1ccccc1`, the TGI with IGROV1 ovarian, in the assay on CAKI-1 renal, with UACC-257 melanoma, in the assay with U251 CNS, with DU-145 prostate and in the assay with NCI-H226 lung was over 100 µM throughout. The TGI with SK-MEL-5 melanoma, with SF-268 CNS, in the assay with NCI-H460 lung and in the assay on OVCAR-8 ovarian was over 100 µM in each case.
Consider `CN(C)CC1C(=O)O[C@H]2[C@H]1CC/C(COC(=O)NCc1ccc(Cn3c(=O)sn(CCCI)c3=O)cc1)=C\CC[C@@]1(C)O[C@@H]21` (stereo not given in full), for which the GI50 in the assay with IGROV1 ovarian is 0.922 µM; with CAKI-1 renal, 0.886 µM; with UACC-257 melanoma, 4.04 µM; in the assay on U251 CNS, 7.53 µM; in the assay with DU-145 prostate it was 1.07 µM; with NCI-H226 lung it was 7.32 µM. In addition, the GI50 in the assay with SK-MEL-5 melanoma is 6.53 µM; with SF-268 CNS, 4.84 µM; in the assay with NCI-H460 lung, 7.77 µM; in the assay with OVCAR-8 ovarian, 1.16 µM. For the same compound, the TGI was 1.97 µM with IGROV1 ovarian; 1.95 µM with CAKI-1 renal; 11.7 µM in the assay with UACC-257 melanoma; 14.3 µM with U251 CNS; 2.16 µM with DU-145 prostate; 17.6 µM in the assay on NCI-H226 lung. Further, the TGI came to 13.3 µM in the assay on SK-MEL-5 melanoma, 11.4 µM in the assay with SF-268 CNS, 17.2 µM in the assay with NCI-H460 lung and 2.72 µM with OVCAR-8 ovarian.
As to `OC(CN1CCCC2CCCCC21)c1cc2ccccc2c2ccccc12` (stereo not given), the GI50 was 2.59 µM in the assay on IGROV1 ovarian; 2.36 µM with CAKI-1 renal; 1.96 µM in the assay with UACC-257 melanoma; 1.85 µM in the assay with U251 CNS; 3.73 µM with DU-145 prostate; 2.14 µM in the assay on NCI-H226 lung. Moreover, the GI50 in the assay with SK-MEL-5 melanoma is 1.67 µM; in the assay on SF-268 CNS, 3.64 µM; in the assay with NCI-H460 lung, 1.83 µM; with OVCAR-8 ovarian it was 3.2 µM. The TGI with IGROV1 ovarian came to 8.66 µM; with CAKI-1 renal, 8.15 µM; with UACC-257 melanoma, 4.73 µM; in the assay with U251 CNS, 3.77 µM; in the assay on DU-145 prostate, 14 µM; in the assay on NCI-H226 lung, 6.32 µM. Besides, the TGI in the assay on SK-MEL-5 melanoma was 3.05 µM; with SF-268 CNS it was 13.7 µM; in the assay with NCI-H460 lung, 3.53 µM; in the assay on OVCAR-8 ovarian it was 15.3 µM.
For the compound `Cc1cc2c3c([n+](C)c4ccc(F)cc4c3c1)-c1cc(F)ccc1N2C`, the GI50 was 19.9 µM in the assay with IGROV1 ovarian; over 100 µM with CAKI-1 renal; 6.2 µM with UACC-257 melanoma; 1.69 µM in the assay with U251 CNS; 17.9 µM with DU-145 prostate; 3.41 µM in the assay on NCI-H226 lung. The GI50 is 5.29 µM in the assay with SK-MEL-5 melanoma, 2.42 µM in the assay on SF-268 CNS, 15.4 µM in the assay with NCI-H460 lung and 15.2 µM in the assay on OVCAR-8 ovarian. Also, the TGI in the assay on IGROV1 ovarian was over 100 µM; in the assay with CAKI-1 renal, over 100 µM; in the assay on UACC-257 melanoma, 30.5 µM; with U251 CNS it was over 100 µM; with DU-145 prostate it was over 100 µM; in the assay on NCI-H226 lung it was 57.3 µM. Moreover, the TGI is 22.1 µM with SK-MEL-5 melanoma, 14.8 µM in the assay with SF-268 CNS, 49.5 µM in the assay with NCI-H460 lung and over 100 µM in the assay on OVCAR-8 ovarian.
